Data from publication PMC5464773 (eLife, 2017).
Where two headings read alike, the source gives them in different places.

Key:
Mcl-1 = target: T1, Mcl-1 (Homo sapiens, UniProt Q07820); experiment: Competition fluorescence polarization (anisotropy) with fluoresceinated BIM; type: binding
T1 construct: c-myc
Method: C-myc-tagged receptors were used for all Bcl-2 homologs, as previously described ([DeBartolo et al., 2012]; [Dutta et al., 2010]). Plates were mixed at 23°C for 3 hr. Plates were read again at 24 to check equilibration. Experiments were done in at least triplicate. Data were fit, as described for competition fluorescence anisotropy experiments in [Foight et al. (2014]), to a complete competitive binding model (equation 17 in [Roehrl et al. [2004]]) using a Python script.

[1] = tested on: BCR-ABL-expressing B-lineage acute lymphoblastic leukemia cells dependent on Bfl-1; experiment: BH3 profiling, mitochondrial depolarization (JC-1) in permeabilized cells; type: cell-based; design: key to Bottom (best-fit value) / Top (best-fit value): % depolarization, normalized to DMSO (0) and FCCP (100) controls; conditions: for mitochondrial depolarization pattern in BH3 profiling: 100 nM peptide, four cell lines engineered to depend on Bcl-2, Bcl-xL, Mcl-1 or Bfl-1, JC-1; for HillSlope (best-fit value) / Bottom (best-fit value) / Top (best-fit value) / LogEC50 (best-fit value): BH3 profiling fits Bfl-1, sigmoidal dose-response (variable slope); for Bottom (best-fit value): constraint Bottom < 5; for Top (best-fit value): constraint Top > 78; for LogEC50 (best-fit value): x = Log [Peptide] M, 55-56 Y values analyzed
Method: (§1) Cell line identities were confirmed by STR profiling.
(§2) Peptides were titrated by serial dilution in MEB buffer (150 mM Mannitol, 10 mM HEPES-KOH pH 7.5, 50 mM KCl, 0.02 mM EGTA, 0.02 mM EDTA, 0.1% BSA and 5 mM Succinate) containing 20 μg/mL oligomycin, 50 μg/mL digitonin, 2 μM JC-1 and 10 mM 2-mercaptoethanol in 384-well plates. Controls for no depolarization (1% DMSO) and complete depolarization with the mitochondrial oxidative phosphorylation uncoupler FCCP (20 μM) were included for data normalization. […] 15 μL of cell suspension was added to each well containing 15 μL of treatment solution. […] To produce percent depolarization, the area under the resultant curve was calculated and normalized to the assay controls. Peptide titration curves were fit to sigmoidal dose-response curves using Graphpad PRISM seven to obtain EC50 values.

[2] = tested on: BCR-ABL-expressing B-lineage acute lymphoblastic leukemia cells dependent on Mcl-1; experiment: as above; type: cell-based; conditions: BH3 profiling fits Mcl-1, sigmoidal dose-response (variable slope); for Top (best-fit value): constrained (Top < 100 or Top > 78); for LogEC50 (best-fit value): x = Log [Peptide] M, fits hit constraint or ambiguous
Method: as §1, §2

[3] = tested on: BCR-ABL-expressing B-lineage acute lymphoblastic leukemia cells dependent on Bcl-2; experiment: iBH3 profiling, cytochrome c release; type: cell-based; conditions: iBH3 fits Bcl-2, sigmoidal dose-response (variable slope); for LogEC50 (best-fit value): log of EC50, x axis Log [Peptide M]; for Bottom (best-fit value) / Top (best-fit value): fit of 3 replicates
Method: (§3) As an additional test for on-pathway activity, we measured cytochrome c release in the same engineered cell lines in response to peptide treatment, using iBH3 profiling ([Ryan et al., 2016]).
(§4) The creation and characterization of the BCR-ABL-expressing B-lineage acute lymphoblastic leukemia suspension cell lines with engineered dependencies on human versions of anti-apoptotic genes is detailed in [Koss et al. (2016)]). Cells were grown in RPMI (Life Technologies, Carlsbad, CA) with 10% fetal bovine serum, 2 mM L-glutamine, 10 mL/L 100x Pen/Strep (Life Technologies # 15140122), 25 mM HEPES and 10 mL/L 100x NEAA (Life Technologies, 11140050). The adherent cell lines PC-3 (RRID: CVCL_0035) and SF295 (RRID: CVCL_1690) are from the NCI60 panel ([Lorenzi et al., 2009]) and were grown in RPMI (Life Technologies) with 10% fetal bovine serum, 2 mM L-glutamine and 10 mL/L 100x Pen/Strep (Life Technologies # 15140122 ). Cell line identities were confirmed by STR profiling. The Lookout Mycoplasma PCR detection kit (Sigma) was used to detect mycoplasma infection.
(§5) Cells were suspended in MEB buffer (150 mM mannitol, 50 mM KCl, 10 mM HEPES, 5 mM succinic acid, 20 μM EGTA, 20 μM EDTA, 0.1% BSA, final pH 7.4) at 0.5*10^6 cells/mL (adherent lines) or 2 *10^6 cells/mL (suspension lines). Cell suspension was added to a 384 non-binding well plate (10 μL/well) containing peptides at 2X final concentration in MEB with 20 μg/mL digitonin. Plates were incubated at 25°C for 1 hr. To terminate exposure, 10 μL of 4% formaldehyde in PBS was added to each well, plates were incubated for 10 min before addition of 10 μL N2 buffer (1.7M Tris, 1.25M glycine, pH 9.1) for 5 min. 10 μL of staining buffer (2% Tween20, 10% BSA, PBS) containing 10 μg/mL Hoechst 33342 and 1.25 μg/mL anti-cytochrome c Alexa647 conjugate (BioLegend clone 6H2.B4) was added to each well before sealing the plate and shaking overnight. The median fluorescence of the cytochrome c channel of Hoechst positive singlets was recorded by an IntelliCyt iQue Screener Plus. Cytochrome c release was determined by normalizing the median fluorescence intensity (MFI) data to positive control wells (Alamethicin) and negative control wells (DMSO) as follows: Cytochromecrelease=1−(MFIsample−MFIAlamethicin)/(MFIDMSO−MFIAlamethicin)

[4] = tested on: BCR-ABL-expressing B-lineage acute lymphoblastic leukemia cells dependent on Bcl-xL; experiment: iBH3 profiling, cytochrome c release; type: cell-based; conditions: iBH3 fits Bcl-xL, sigmoidal dose-response (variable slope); for LogEC50 (best-fit value): log of EC50, x axis Log [Peptide M]; for Bottom (best-fit value) / Top (best-fit value): fit of 3 replicates
Method: as §3, §4, §5

PC-3 cells = experiment: iBH3, cytochrome c release in unprimed cells (BAK/BAX activator function); type: cell-based; conditions: for peptide concentration leading to cytochrome c release in unprimed cells: PC-3, unprimed, iBH3, 25°C, 1 hr; for LogEC50 (best-fit value) / HillSlope (best-fit value) / Bottom (best-fit value) / Top (best-fit value): iBH3 fit PC-3, sigmoidal dose-response (variable slope); for LogEC50 (best-fit value): log of EC50, x axis Log [Peptide M]; for Bottom (best-fit value) / Top (best-fit value): fit of 4 replicates
Method: (§6) To test the possibility that FS1, FS2 or FS3 may directly activate BAK and BAX, we measured cytochrome c release in two ‘unprimed’ cell lines (PC-3 and SF295). Unprimed cells require BAK/BAX activators to release cytochrome c ([Certo et al., 2006]).
as §1
(§7) Plates were incubated at 25°C for 1 hr.

SF295 cells = type: cell-based; conditions: for peptide concentration leading to cytochrome c release in unprimed cells: SF295, unprimed, iBH3, 25°C, 1 hr; for Bottom (best-fit value) / HillSlope (best-fit value) / Top (best-fit value) / LogEC50 (best-fit value): SF295 cells, iBH3 fit, sigmoidal dose-response (variable slope); for LogEC50 (best-fit value): log of peptide concentration in M
Method: as §6, §1, §7

[5] = competition FP source data, mean of three replicates, values above 5 μM are reported as > 5 μM in the figures, read-out: mean Ki (M) Mcl-1
[6] = competition FP source data, replicate 1
[7] = competition FP source data, replicate 2
[8] = competition FP source data, replicate 3

T1 sequence (Q07820 whole entry): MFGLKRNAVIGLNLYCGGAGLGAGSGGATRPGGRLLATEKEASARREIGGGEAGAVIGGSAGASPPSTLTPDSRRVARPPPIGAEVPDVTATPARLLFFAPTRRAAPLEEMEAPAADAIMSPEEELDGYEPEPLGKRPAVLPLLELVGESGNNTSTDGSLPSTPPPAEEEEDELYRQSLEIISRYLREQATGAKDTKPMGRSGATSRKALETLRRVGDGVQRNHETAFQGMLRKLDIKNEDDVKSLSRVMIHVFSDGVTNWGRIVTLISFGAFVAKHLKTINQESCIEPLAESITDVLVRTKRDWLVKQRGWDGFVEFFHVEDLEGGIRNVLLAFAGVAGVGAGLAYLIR

Substance	Ki (M) Mcl-1 (Mcl-1; [6])	Ki (M) Mcl-1 (Mcl-1; [7])	Ki (M) Mcl-1 (Mcl-1; [8])	mitochondrial depolarization pattern in BH3 profiling [1]	HillSlope (best-fit value) [1]	Bottom (best-fit value) [1]	Top (best-fit value) [1]	LogEC50 (best-fit value) [1]	HillSlope (best-fit value) [2]	Top (best-fit value) [2]	LogEC50 (best-fit value) [2]	LogEC50 (best-fit value) [3]	HillSlope (best-fit value) [3]	Bottom (best-fit value) [3]	Top (best-fit value) [3]	LogEC50 (best-fit value) [4]	HillSlope (best-fit value) [4]	Bottom (best-fit value) [4]	Top (best-fit value) [4]	peptide concentration leading to cytochrome c release in unprimed cells (PC-3 cells)	further results
Ac-QWIREIAAGLRRFADILNAQVER-NH2 [FS3]	6.51e-07 M	6.19e-07 M	3.85e-07 M	promoted depolarization only in Bfl-1 dependent cells	0.653	0.004086	83.65	-8.381	0.8379	~ 100	-5.183	-5.822	2.312	0.1754	0.986	-5.617	1.589	0.1375	0.9805	30 to 100 µM	Ki (Mcl-1; [5]): 5.52e-07 M; specificity in BH3 profiling ([1]; four engineered cell lines, FS3 statement holds for JC-1 BH3 profiling and iBH3): significant cross reactivity at 30 μM; Bottom (best-fit value) ([2]; constrained (0 < Bottom < 5 or Bottom < 5)): 4.876; LogEC50 (best-fit value) (PC-3 cells): -4.638; HillSlope (best-fit value) (PC-3 cells): 2.225; Bottom (best-fit value) (PC-3 cells): 0.07242; Top (best-fit value) (PC-3 cells): 1.062; peptide concentration leading to cytochrome c release in unprimed cells (SF295 cells): 30 to 100 µM; Bottom (best-fit value) (SF295 cells): 0.0773; HillSlope (best-fit value) (SF295 cells): 2.539; Top (best-fit value) (SF295 cells): 1.042; LogEC50 (best-fit value) (SF295 cells): -4.873
Ac-QWVREIAAGLRLAADNVNAQLER-NH2 [FS1]	2.37e-06 M	8.12e-06 M	1.24e-05 M	promoted depolarization only in Bfl-1 dependent cells	0.8486	1.325	81.21	-7.974	0.346	99.39	-4.985	-3.946	0.814	0.1541	1.46	~ -4.446	~ 9.069	0.1572	0.461	> 100 µM	Ki (Mcl-1; [5]): 7.64e-06 M; Ki (Mcl-1; competition FP, 50 nM c-myc-tagged receptor + 25 nM fluoresceinated BIM, Tris pH 7.8, 23°C, 3 hr, mean ± SD of three replicates, read-out: Ki (nM) Mcl-1): > 5e-06 M; LogEC50 (best-fit value) (PC-3 cells): ~ -3.754; HillSlope (best-fit value) (PC-3 cells): ~ -10.78; Bottom (best-fit value) (PC-3 cells): ~ -63.64; Top (best-fit value) (PC-3 cells): 0.1; peptide concentration leading to cytochrome c release in unprimed cells (SF295 cells): > 100 µM; Bottom (best-fit value) (SF295 cells): ~ -0.1825; HillSlope (best-fit value) (SF295 cells): ~ -14.56; Top (best-fit value) (SF295 cells): 0.01448; LogEC50 (best-fit value) (SF295 cells): ~ -4.046
Ac-QWVREIAAGLRRAADDVNAQVER-NH2 [FS2]	2.88e-06 M	3.39e-06 M	3.32e-06 M	promoted depolarization only in Bfl-1 dependent cells	0.7703	0.97	84.17	-7.679	0.4032	~ 100	-4.604	-4.564	1.006	0.134	1.087	~ -3.991	~ 14.29	0.1223	~ 0.6231	> 100 µM	fold weaker binding to Mcl-1 than to Bfl-1 (Mcl-1; ratio of Ki values from competition FP): > 100 fold; peptide concentration leading to cytochrome c release in unprimed cells (SF295 cells): > 100 µM
